Source: patent US20230322722A1, “MODULATORS OF MYC FAMILY PROTO-ONCOGENE PROTEIN” (Nalo Therapeutics, priority 2020, published 2023)

Legend:
MycN protein = target: T1, MycN protein (Homo sapiens, UniProt P04198); test: Degradation of MycN protein, Western blot, SKNBE2 cells (Example 160); type: cell-based
T1 construct: either 2×10^6 of L-363 (human leukemia cell line) or SKNBE2 (neuroblastoma cell line) cells; endogenous in cells; host or cells: SKNBE2 / SK-N-BE(2) neuroblastoma cells
T1 sequence (P04198 1-464): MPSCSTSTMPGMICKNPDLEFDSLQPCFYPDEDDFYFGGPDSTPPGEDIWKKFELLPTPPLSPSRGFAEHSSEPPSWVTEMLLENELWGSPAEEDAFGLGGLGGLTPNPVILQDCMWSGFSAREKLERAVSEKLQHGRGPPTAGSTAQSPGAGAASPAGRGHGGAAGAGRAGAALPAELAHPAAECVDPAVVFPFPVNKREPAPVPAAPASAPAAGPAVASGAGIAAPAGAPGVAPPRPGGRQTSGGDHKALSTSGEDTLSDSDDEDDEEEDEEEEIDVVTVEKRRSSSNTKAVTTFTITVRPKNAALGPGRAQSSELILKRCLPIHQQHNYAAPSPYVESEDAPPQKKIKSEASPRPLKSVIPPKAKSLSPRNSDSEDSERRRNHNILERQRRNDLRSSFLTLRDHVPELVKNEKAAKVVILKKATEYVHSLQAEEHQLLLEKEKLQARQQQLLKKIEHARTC
Summary of the method: (§1)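 L-363 or SKNBE2 cells (passage <40, mostly <30) at 1×10^6 cells/mL in RPMI 1640/10% FBS were exposed 6 h to compound added from a 1 mM stock. RIPA lysates (25–30 ug protein) were analysed by SDS-PAGE and immunoblot with 1:500 primary antibody, with protein level quantified by band densitometry.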

MycC protein = target: T2, MycC protein (Homo sapiens, UniProt P01106); test: Degradation of MycC protein, Western blot, L-363 cells (Example 160); type: cell-based; settings: for inhibition at 2 µM: 6 h
T2 construct: either 2×10^6 of L-363 (human leukemia cell line) or SKNBE2 (neuroblastoma cell line) cells; endogenous in cells; host or cells: L-363 / L363 human leukemia cells
T2 sequence (P01106 whole entry): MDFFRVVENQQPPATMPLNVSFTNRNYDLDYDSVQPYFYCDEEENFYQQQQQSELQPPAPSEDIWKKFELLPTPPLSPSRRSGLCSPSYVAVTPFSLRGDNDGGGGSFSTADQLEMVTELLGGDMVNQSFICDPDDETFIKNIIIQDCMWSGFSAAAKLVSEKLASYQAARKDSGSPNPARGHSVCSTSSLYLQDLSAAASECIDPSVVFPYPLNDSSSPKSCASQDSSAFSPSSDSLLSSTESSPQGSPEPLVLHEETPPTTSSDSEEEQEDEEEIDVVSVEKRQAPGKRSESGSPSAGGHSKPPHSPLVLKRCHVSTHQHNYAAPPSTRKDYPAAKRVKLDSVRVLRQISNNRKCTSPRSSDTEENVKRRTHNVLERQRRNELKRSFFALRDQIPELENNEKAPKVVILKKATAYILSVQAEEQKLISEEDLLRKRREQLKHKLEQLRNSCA
Summary of the method: as §1

| Structure (SMILES) | inhibition at 2 µM (MycN protein; SKNBE2, 6 h) [%] | inhibition at 2 µM (MycC protein) [%] | % Degradation of MycN (SKNBE2) 6 h, 2 μM (MycN protein) | % Degradation of MycC (L-363) 6 h, 2 μM (MycC protein) | inhibition at 2 µM (MycN protein; 6 h) [%] |
| --- | --- | --- | --- | --- | --- |
| CN(c1cc(C2CC2)[nH]n1)c1ccnc(N(C)[C@H]2CC[C@H](NC(=O)c3nnn(C)n3)CC2)n1 [Compound 147, N-((1R,4R)-4-((4-((5-cyclopropyl-1H-pyrazol-3-yl)(methyl)amino)pyrimidin-2-yl)(methyl)amino)cyclohexyl)-2-methyl-2H-tetrazole-5-carboxamide] | < 20 | 20 to 49 | – | – | – |
| Cn1nc(Nc2ccnc(N(C)[C@H]3CC[C@H](NC(=O)C4Cc5ccccc5C4)CC3)n2)cc1C1CC1 [Compound 111, N-((1R,4R)-4-((4-((5-cyclopropyl-1-methyl-1H-pyrazol-3-yl)amino)pyrimidin-2-yl)(methyl)amino)cyclohexyl)-2,3-dihydro-1H-indene-2-carboxamide] | 20 to 49 | < 20 | – | – | – |
| CN(c1nccc(Nc2cc(C3CC3)[nH]n2)n1)[C@H]1CC[C@H](NC(=O)C2CCCC(C(F)(F)F)C2)CC1 (some centres unmarked) [113 F2] | – | – | *** (degradation 50-79%) | *** (degradation 50-79%) | – |
| CN(c1cc(C2CC2)[nH]n1)c1ccnc(N(C)[C@H]2CC[C@H](NC(=O)C3Cc4ccccc4C3)CC2)n1 [Compound 110, N-((1R,4R)-4-((4-((5-cyclopropyl-1H-pyrazol-3-yl)(methyl)amino)pyrimidin-2-yl)(methyl)amino)cyclohexyl)-2,3-dihydro-1H-indene-2-carboxamide] | < 20 | 20 to 49 | – | – | – |
| CN(c1cc(C2CCCC2)[nH]n1)c1ccnc(N(C)[C@H]2CC[C@H](NC(=O)c3cccc(S(C)(=O)=O)c3)CC2)n1 [Compound 148, N-((1R,4R)-4-((4-((5-cyclopentyl-1H-pyrazol-3-yl)(methyl)amino)pyrimidin-2-yl)(methyl)amino)cyclohexyl)-3-(methylsulfonyl)benzamide] | < 20 | 20 to 49 | – | – | – |
| CN(c1nccc(Nc2cc(C3CC3)[nH]n2)n1)[C@H]1CC[C@H](NC(=O)c2cccc(S(C)(=O)=O)c2)CC1 [Compound 132, N-((1R,4R)-4-((4-((5-cyclopropyl-1H-pyrazol-3-yl)amino)pyrimidin-2-yl)(methyl)amino)cyclohexyl)-3-(methylsulfonyl)benzamide] | 80 to 100 | 80 to 100 | – | – | – |
| CN(c1nccc(Nc2cc(C3CC3)[nH]n2)n1)[C@H]1CC[C@H](NC(=O)N2Cc3cc(F)c(F)cc3C2)CC1 [Compound 12, N-((1R,4R)-4-((4-((5-cyclopropyl-1H-pyrazol-3-yl)amino)pyrimidin-2-yl)(methyl)amino)cyclohexyl)-5,6-difluoroisoindoline-2-carboxamide] | 50 to 79 | 80 to 100 | – | – | – |
| CN(c1nccc(Nc2cc(C3CC3)[nH]n2)n1)[C@H]1CC[C@H](NC(=O)c2cn3cccnc3n2)CC1 [Compound 141, N-((1R,4R)-4-((4-((5-cyclopropyl-1H-pyrazol-3-yl)amino)pyrimidin-2-yl)(methyl)amino)cyclohexyl)imidazo[1,2-a]pyrimidine-2-carboxamide] | 80 to 100 | 80 to 100 | – | – | – |
| CN(c1nccc(Nc2cc(C3CC3)[nH]n2)n1)C1CCN(CC(=O)Nc2cccc(C(F)(F)F)c2)CC1 [Compound 1, 2-(4-((4-((5-cyclopropyl-1H-pyrazol-3-yl)amino)pyrimidin-2-yl)(methyl)amino)piperidin-1-yl)-N-(3-(trifluoromethyl)phenyl)acetamide] | – | 80 to 100 | – | – | 50 to 79 |
| CN(c1nccc(Nc2cc(C3CC3)[nH]n2)n1)[C@H]1CC[C@H](NS(=O)(=O)c2cccc(S(C)(=O)=O)c2)CC1 [Compound 155, N-((1R,4R)-4-((4-((5-cyclopropyl-1H-pyrazol-3-yl)amino)pyrimidin-2-yl)(methyl)amino)cyclohexyl)-3-(methylsulfonyl)benzenesulfonamide] | 80 to 100 | 80 to 100 | – | – | – |
